Results on one compound are retold here after article PMC9570594, “Development of Novel Pyridine-Thiazole Hybrid Molecules as Potential Anticancer Agents” (Molecules, 2022).

One series concerns T-47D (Brest Cancer). As to the kind of experiment: NCI one-dose SRB assay. Particulars: 10 μM, 48 h.
Series [1] relates to panel of 60 cancer cell lines. As to the kind of experiment: NCI DTP one-dose primary anticancer assay (10^-5 M, SRB). Particulars: 10 μM.
Experimental: (§1) Primary anticancer assays (Table 3) on a panel of 60 cancer cell lines at one dose-assay (10^−5 M) were performed according to the NCI protocol, as described elsewhere [31, 32, 33, 34, 35].
(§2) A primary anticancer assay was performed on a panel of approximately sixty human tumor cell lines derived from nine neoplastic diseases, in accordance with the protocol of the Drug Evaluation Branch, National Cancer Institute, Bethesda [31, 32, 33, 34, 35]. Tested compounds were added to the culture at a single concentration (10^−5 M) and the cultures were incubated for 48 h. End point determinations were made with a protein binding dye, Sulphorhodamine B (SRB). […] The percentage growth was evaluated spectrophotometrically versus controls not treated with test agents.
A further series relates to MCF-7 (breast). As to the kind of experiment: MTT assay of cell viability. Particulars: Homo sapiens, MCF7, 72 h, MCF-7; 72 h of incubation, M ± SD.
Another series has as its system A549 (lung). As to the kind of experiment: MTT assay of cell viability. Particulars: Homo sapiens, A549, 72 h.
The test system of series [2] is human epidermal keratinocytes of HaCaT line. As to the kind of experiment: MTT assay of cell viability. Particulars: 72 h.
In another series the test system is SR (Leukemia). As to the kind of experiment: NCI one-dose SRB assay. Particulars: 10 μM, 48 h.
The next series deals with HCT-116 (colon). As to the kind of experiment: MTT assay of cell viability. The conditions noted are these: Homo sapiens, HCT-116, 72 h, HCT-116; 72 h of incubation, M ± SD.
The next series has as its system K-562 (Leukemia). As to the kind of experiment: NCI one-dose SRB assay. The conditions noted are these: 10 μM, 48 h.
Another series has as its system Jurkat (leukemia). As to the kind of experiment: MTT assay of cell viability. The conditions noted are these: Homo sapiens, 72 h.
Another series concerns KB3-1 (cervix). As to the kind of experiment: MTT assay of cell viability. The conditions noted are these: Homo sapiens, KB 3-1, 72 h, KB3-1; 72 h of incubation, M ± SD.
Series [3] deals with HCT-116 p53 (−/−) colon cancer cells. As to the kind of experiment: MTT assay of cell viability. Particulars: Homo sapiens, HCT-116, 72 h.
Text: The cell lines used in our work were kindly provided by a Collection at the Institute of Molecular Biology and Genetics, National Academy of Sciences of Ukraine (Kyiv, Ukraine).
The subject of another series is SK-OV-3 (ovarian). As to the kind of experiment: MTT assay of cell viability. Particulars: Homo sapiens, SK-OV-3, 72 h.
Series [4] deals with murine macrophages of J774.2 line. As to the kind of experiment: MTT assay of cell viability. The conditions noted are these: Mus musculus, J774.2, 72 h.
Another series has as its system SK Mel-5 (Melanoma). As to the kind of experiment: NCI one-dose SRB assay. The conditions noted are these: 10 μM, 48 h.

Experimental for K-562 (Leukemia): as §1, §2
Experimental for SK Mel-5 (Melanoma): (§3) Tested compounds were added to the culture at a single concentration (10^−5 M) and the cultures were incubated for 48 h. End point determinations were made with a protein binding dye, Sulphorhodamine B (SRB). […] The percentage growth was evaluated spectrophotometrically versus controls not treated with test agents.
Experimental for SR (Leukemia): as §1, §2
Experimental for T-47D (Brest Cancer): as §3

With `CC(=O)N1N=C(c2sc(Nc3ccccn3)nc2C)CC1c1ccccc1F` (stereo not shown) [Compound 6, 1-{5-(2-Fluorophenyl)-3-[4-methyl-2-(2-pyridylamino)-thiazol-5-yl]-4,5-dihydropyrazol-1-yl}-ethanone], the Growth % amounted to 14.27% with T-47D (Brest Cancer), 12.53% with SR (Leukemia), 15.62% in the series on K-562 (Leukemia) and 17.75% with SK Mel-5 (Melanoma). Also, in series [1] (48 h, 60 cell lines), the “Range of Growth, %” value is on record as 12.53–95.32%. Also, in [1] (number of cell lines with percent growth from 0 to 50 / total number of cell lines), the “Positive Cytostatic Effect” value is 32/59. Also, in [1] (number of cell lines with percent growth of <0 / total number of cell lines), the “Positive Cytotoxic Effect” value is given as 0/59. For the same compound, the IC50 in the series with MCF-7 (breast) is 45.4 ± 2.2 µM; in the series on A549 (lung), 63.4 ± 3.81 µM; in series [2] it was above 50 µM; with HCT-116 (colon), above 50 µM; with Jurkat (leukemia), above 100 µM; with KB3-1 (cervix), 24.9 ± 0.74 µM. Moreover, the IC50 is 29.1 ± 1.45 µM in series [3], 39.6 ± 2.37 µM in the series on SK-OV-3 (ovarian) and above 50 µM in series [4].
